Experimental data reported in patent US20230165252A1, “ACTIVE COMPOUND COMBINATIONS” (Bayer Aktiengesellschaft, priority 2020, published 2023).
Like-named read-outs stand apart in the source and are kept apart here.

Tests used:
Assay type in all cases: cell-based
Botrytis cinerea = assay: in vitro-Test with Botrytis cinerea (microtiter growth inhibition); conditions: for inhibition of growth at 0.04 ppm: single active at 0.04 ppm; for inhibition of growth at 0.2 ppm: single active at 0.2 ppm; for Efficacy: applied alone
Outline: (§1)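 Fungal spores or mycelium in liquid potato dextrose medium are incubated on wells pre-coated with evaporated test material at 20° C. and 85% humidity. Absorbance at 620 nm is taken initially and 3-5 days post-application; efficacy (%) is scaled from untreated control growth (0%) to no growth (100%).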

Parastagonospora nodorum = assay: in vitro-Test with Parastagonospora nodorum (microtiter growth inhibition)
Protocol: (§2) The degree of efficacy expressed in % is denoted: 0% means an efficacy, which corresponds to that of the control, while an efficacy of 100% means that no disease is observed.
(§3) If the actual fungicidal activity exceeds the calculated value, then the activity of the combination is super-additive, i.e. a synergistic effect exists. In this case, the efficacy, which was actually observed, must be greater than the value for the expected efficacy (E), that was calculated from the abovementioned formula.
(§4) Example: In Vitro-Test with Fungal Microorganisms
(§5) Wells of 96-well microtiter plates are filled with 10 μl of a preparation of test compound or compound combination in methanol+emulsifier alkylaryl-polyglycol-ether. Thereafter, the solvent is evaporated in a hood. At the next step, 100 μl of liquid potato dextrose medium is given into each well, that has been amended with an appropriate concentration of spores or mycelium suspension of the test fungus.
(§6) With the aid of a photometer, the extinction in all wells is measured at the wavelength of 620 nm.
(§7) The microtiter plates are incubated at 20° C. and 85% relative humidity. The inhibition of growth is determined again photometrically 3-5 days after the application. Efficacy is calculated in relation to the untreated control, 0% efficacy means fungal growth as high as in untreated control while 100% efficacy means no fungal growth is measured.

[1] = tested on: Colletotrichum lindemuthianum; assay: in vitro-Test with Colletotrichum lindemuthianum (microtiter growth inhibition)
Protocol: as §2, §3, §4, §5, §6, §7

[2] = tested on: Ustilago segetum var. avenae; assay: in vitro-Test with Ustilago segetum var. avenae (microtiter growth inhibition); conditions: read-out: Efficacy %
Protocol: as §2, §3, §4, §5, §6, §7

Cercospora beticola = assay: in vitro-Test with Cercospora beticola (microtiter growth inhibition); conditions: Cercospora beticola
Protocol: as §2, §3, §4, §5, §6, §7

Diaporthe citri = assay: in vitro-Test with Diaporthe citri (microtiter growth inhibition); conditions: Diaporthe citri, read-out: Efficacy
Outline: as §1

Fusarium culmorum = assay: in vitro-Test with Fusarium culmorum (microtiter growth inhibition); conditions: Fusarium culmorum, read-out: Efficacy
Protocol: as §2, §3, §4, §5, §6, §7

Cordana musae = assay: in vitro-Test with Cordana musae (microtiter growth inhibition); conditions: Neocordana musae
Protocol: as §2, §3, §4, §5, §6, §7

Alternaria alternate = assay: in vitro-Test with Alternaria alternate (microtiter growth inhibition)
Outline: as §1

[3] = Botrytis cinerea, read-out: Efficacy %
[4] = Parastagonospora nodorum, compound alone, 0.04 ppm, read-out: Efficacy %
[5] = Parastagonospora nodorum, compound alone, 0.2 ppm, read-out: Efficacy %
[6] = Parastagonospora nodorum, compound alone, 1.0 ppm, read-out: Efficacy %
[7] = Colletotrichum lindemuthianum, applied alone at 0.2 ppm, read-out: Efficacy %
[8] = Parastagonospora nodorum, read-out: Efficacy %
[9] = Colletotrichum lindemuthianum, read-out: Efficacy %

OC(Cc1ccccc1Cl)(Cn1nc[nH]c1=S)C1(Cl)CC1 (centres unmarked) [(1.018) prothioconazole]
inhibition of growth at 0.04 ppm (Botrytis cinerea; [3]): 63%
inhibition of growth at 0.2 ppm (Botrytis cinerea; [3]): 100%
inhibition of growth at 0.008 ppm (Parastagonospora nodorum; Parastagonospora nodorum, compound alone, 0.008 ppm, read-out: Efficacy %): 28%
inhibition of growth at 0.04 ppm (Parastagonospora nodorum; [4]): 91%
inhibition of growth at 0.2 ppm (Parastagonospora nodorum; [5]): 99%
inhibition of growth at 1 ppm (Parastagonospora nodorum; [6]): 100%
Efficacy % (Parastagonospora nodorum; compound alone, 0.2 ppm): 99%
inhibition of growth at 0.2 ppm [1, 7]: 73%

CC(C)(C)C(O)(CCc1ccc(Cl)cc1)Cn1cncn1 (centres unmarked) [(1.021) tebuconazole]
inhibition of growth at 0.008 ppm (Botrytis cinerea; Botrytis cinerea, single active at 0.008 ppm, read-out: Efficacy %): 2%
inhibition of growth at 0.04 ppm (Botrytis cinerea; [3]): 5%
inhibition of growth at 0.2 ppm (Botrytis cinerea; [3]): 39%
inhibition of growth at 0.04 ppm (Parastagonospora nodorum; [4]): 10%
inhibition of growth at 0.2 ppm (Parastagonospora nodorum; [5]): 79%
inhibition of growth at 1 ppm (Parastagonospora nodorum; [6]): 98%
inhibition of growth at 0.008 ppm ([1]; Colletotrichum lindemuthianum, applied alone at 0.008 ppm, read-out: Efficacy %): 7%
inhibition of growth at 0.04 ppm ([1]; Colletotrichum lindemuthianum, applied alone at 0.04 ppm, read-out: Efficacy %): 20%
inhibition of growth at 0.2 ppm [1, 7]: 2%
inhibition of growth at 1 ppm ([1]; Colletotrichum lindemuthianum, applied alone at 1.0 ppm, read-out: Efficacy %): 28%

O=C(NCCc1ncc(C(F)(F)F)cc1Cl)c1ccccc1C(F)(F)F [(2.005) fluopyram]
inhibition of growth at 0.8 ppm (Botrytis cinerea; Botrytis cinerea, single active at 0.8 ppm, read-out: Efficacy %): 66%
inhibition of growth at 4 ppm (Botrytis cinerea; Botrytis cinerea, single active at 4 ppm, read-out: Efficacy %): 64%
inhibition of growth at 0.8 ppm (Parastagonospora nodorum; Parastagonospora nodorum, compound alone, 0.8 ppm, read-out: Efficacy %): 32%
inhibition of growth at 4 ppm (Parastagonospora nodorum; Parastagonospora nodorum, compound alone, 4 ppm, read-out: Efficacy %): 41%
inhibition of growth at 20 ppm (Parastagonospora nodorum; Parastagonospora nodorum, compound alone, 20 ppm, read-out: Efficacy %): 65%
inhibition of growth at 0.8 ppm ([1]; Colletotrichum lindemuthianum, applied alone at 0.8 ppm, read-out: Efficacy %): 14%
inhibition of growth at 4 ppm ([1]; Colletotrichum lindemuthianum, applied alone at 4 ppm, read-out: Efficacy %): 7%
inhibition of growth at 20 ppm ([1]; Colletotrichum lindemuthianum, applied alone at 20 ppm, read-out: Efficacy %): 19%

N#Cc1ccccc1NC(=O)c1snc(Cl)c1Cl [(6.002) isotianil]
Efficacy % (Botrytis cinerea; single active at 4 ppm): 0%
Efficacy % (Botrytis cinerea; single active at 20 ppm): 0%
Efficacy % (Botrytis cinerea; single active at 100 ppm): 0%
Efficacy % ([1]; applied alone at 0.8 ppm): 7%
Efficacy % ([1]; applied alone at 4 ppm): 19%
Efficacy % ([1]; applied alone at 20 ppm): 0%
Efficacy % ([1]; applied alone at 100 ppm): 17%

N#Cc1c[nH]cc1-c1cccc2c1OC(F)(F)O2 [(13.001) fludioxonil]
inhibition of growth at 1 ppm (Parastagonospora nodorum; [8]): 34%
inhibition of growth at 5 ppm (Parastagonospora nodorum; [8]): 75%
Efficacy % (Parastagonospora nodorum; compound alone, 0.04 ppm): 0%
Efficacy % (Parastagonospora nodorum; compound alone, 0.2 ppm): 0%
inhibition of growth at 0.04 ppm [1, 9]: 8%
inhibition of growth at 0.2 ppm [1, 9]: 68%
inhibition of growth at 1 ppm [1, 9]: 81%
inhibition of growth at 5 ppm [1, 9]: 44%
Efficacy % ([1]; applied alone at 0.2 ppm): 60%

CCO[PH](=O)[O-].CCO[PH](=O)[O-].CCO[PH](=O)[O-].[Al+3] [(15.012) fosetylaluminium]
Efficacy % ([1]; applied alone at 4 ppm): 0%
Efficacy % ([1]; applied alone at 20 ppm): 22%
Efficacy % ([1]; applied alone at 100 ppm): 70%

CCN(C)C=Nc1cc(C)c(Oc2ccccc2F)cc1Cl [Compound 15.064, N′-[2-chloro-4-(2-fluorophenoxy)-5-methylphenyl]-N-ethyl-N-methylimidoformamide]
inhibition of growth at 0.4 ppm ([2]; compound alone): 0%
inhibition of growth at 2 ppm ([2]; compound alone): 41%
inhibition of growth at 10 ppm ([2]; compound alone): 100%
inhibition of growth at 0.08 ppm ([2]; single compound, 0.08 ppm): 1%
inhibition of growth at 0.4 ppm ([2]; single compound): 2%
inhibition of growth at 2 ppm ([2]; single compound): 68%
inhibition of growth at 10 ppm ([2]; single compound): 100%
inhibition of growth at 0.04 ppm (Botrytis cinerea; [3]): 0%
inhibition of growth at 0.2 ppm (Botrytis cinerea; [3]): 100%
inhibition of growth at 1 ppm (Botrytis cinerea; Botrytis cinerea, single active at 1.0 ppm, read-out: Efficacy %): 100%
inhibition of growth at 5 ppm (Botrytis cinerea; Botrytis cinerea, single active at 5.0 ppm, read-out: Efficacy %): 100%
Efficacy (Botrytis cinerea; 0.080 ppm): 0%
Efficacy (Botrytis cinerea; 0.4 ppm): 0%
Efficacy (Botrytis cinerea; 2 ppm): 31%
inhibition of growth at 0.08 ppm (Cercospora beticola; alone, 0.08 ppm, read-out: Efficacy %): 0%
inhibition of growth at 0.4 ppm (Cercospora beticola; alone, 0.4 ppm, read-out: Efficacy %): 0%
inhibition of growth at 10 ppm (Cercospora beticola; alone, 10 ppm, read-out: Efficacy %): 14%
inhibition of growth at 0.08 ppm (Diaporthe citri; applied alone, 0.080 ppm): 11%
inhibition of growth at 0.4 ppm (Diaporthe citri; applied alone, 0.4 ppm): 2%
inhibition of growth at 2 ppm (Diaporthe citri; applied alone, 2 ppm): 5%
inhibition of growth at 0.4 ppm (Fusarium culmorum): 0%
inhibition of growth at 2 ppm (Fusarium culmorum): 1%
inhibition of growth at 10 ppm (Fusarium culmorum): 9%
inhibition of growth at 0.08 ppm (Cordana musae; single substance, 0.080 ppm, read-out: Efficacy): 0%
inhibition of growth at 0.4 ppm (Cordana musae; single substance, 0.4 ppm, read-out: Efficacy): 18%
inhibition of growth at 2 ppm (Cordana musae; single substance, 2 ppm, read-out: Efficacy): 14%
inhibition of growth at 10 ppm (Cordana musae; single substance, 10 ppm, read-out: Efficacy): 5%

N#Cc1c[nH]cc1-c1cccc2c1OC(F)(F)O2 [fludioxonil]
inhibition of growth at 0.04 ppm (Alternaria alternate; Alternaria, read-out: Efficacy %, 0.04 ppm, alone): 0%
inhibition of growth at 0.2 ppm (Alternaria alternate; Alternaria, read-out: Efficacy %, 0.2 ppm, alone): 0%
inhibition of growth at 1 ppm (Alternaria alternate; Alternaria, read-out: Efficacy %, 1.0 ppm, alone): 87%
inhibition of growth at 5 ppm (Alternaria alternate; Alternaria, read-out: Efficacy %, 5.0 ppm, alone): 100%
inhibition of growth at 0.04 ppm (Alternaria alternate; Alternaria, read-out: Efficacy, applied alone, 0.04 ppm): 0%
inhibition of growth at 0.2 ppm (Alternaria alternate; Alternaria, read-out: Efficacy, applied alone, 0.2 ppm): 0%
inhibition of growth at 1 ppm (Alternaria alternate; Alternaria, read-out: Efficacy, applied alone, 1.0 ppm): 96%
inhibition of growth at 5 ppm (Alternaria alternate; Alternaria, read-out: Efficacy, applied alone, 5.0 ppm): 100%
inhibition of growth at 0.04 ppm [2]: 10%
inhibition of growth at 0.2 ppm [2]: 60%
inhibition of growth at 1 ppm [2]: 100%
inhibition of growth at 5 ppm [2]: 100%
Efficacy (Botrytis cinerea; 0.04 ppm): 12%
Efficacy (Botrytis cinerea; 0.2 ppm): 99%
Efficacy (Botrytis cinerea; 1.0 ppm): 100%
Efficacy (Botrytis cinerea; 5.0 ppm): 100%
inhibition of growth at 5 ppm (Cercospora beticola; read-out: Efficacy %, alone, 5.0 ppm): 95%
inhibition of growth at 0.04 ppm (Diaporthe citri): 12%
inhibition of growth at 0.2 ppm (Diaporthe citri): 0%
inhibition of growth at 1 ppm (Diaporthe citri): 45%
inhibition of growth at 5 ppm (Diaporthe citri): 10%
inhibition of growth at 0.04 ppm (Fusarium culmorum): 0%
inhibition of growth at 0.08 ppm (Fusarium culmorum; 0.08 ppm): 1%
inhibition of growth at 0.2 ppm (Fusarium culmorum; 0.2 ppm): 0%
inhibition of growth at 0.4 ppm (Fusarium culmorum): 1%
inhibition of growth at 1 ppm (Fusarium culmorum): 91%
inhibition of growth at 2 ppm (Fusarium culmorum): 2%
inhibition of growth at 5 ppm (Fusarium culmorum; 5.0 ppm): 100%
inhibition of growth at 10 ppm (Fusarium culmorum): 11%
inhibition of growth at 1 ppm (Cordana musae; read-out: Efficacy, single substance, 1.0 ppm): 20%
inhibition of growth at 5 ppm (Cordana musae; read-out: Efficacy, single substance, 5.0 ppm): 44%

CON=C(C(=O)OC)c1ccccc1CON=C(C)c1cccc(C(F)(F)F)c1 [trifloxystrobin]
inhibition of growth at 0.008 ppm (Alternaria alternate; Alternaria, 0.008 ppm, alone, read-out: Efficacy %): 56%
inhibition of growth at 0.04 ppm (Alternaria alternate; Alternaria, 0.04 ppm, alone, read-out: Efficacy %): 84%
inhibition of growth at 0.2 ppm (Alternaria alternate; Alternaria, 0.2 ppm, alone, read-out: Efficacy %): 90%
inhibition of growth at 1 ppm (Alternaria alternate; Alternaria, 1.0 ppm, alone, read-out: Efficacy %): 98%
inhibition of growth at 0.04 ppm (Alternaria alternate; Alternaria, applied alone, 0.04 ppm, read-out: Efficacy): 82%
inhibition of growth at 0.2 ppm (Alternaria alternate; Alternaria, applied alone, 0.2 ppm, read-out: Efficacy): 87%
Efficacy (Alternaria alternate; applied alone, 0.008 ppm): 51%
inhibition of growth at 0.008 ppm ([2]; single compound, 0.008 ppm): 16%
inhibition of growth at 0.04 ppm ([2]; single compound, 0.04 ppm): 40%
inhibition of growth at 0.2 ppm ([2]; single compound, 0.2 ppm): 53%
inhibition of growth at 0.008 ppm (Cercospora beticola; alone, 0.008 ppm, read-out: Efficacy %): 98%
inhibition of growth at 0.2 ppm (Cercospora beticola; alone, 0.2 ppm, read-out: Efficacy %): 95%
inhibition of growth at 0.008 ppm (Diaporthe citri; applied alone, 0.008 ppm): 82%
inhibition of growth at 0.04 ppm (Diaporthe citri; applied alone, 0.04 ppm): 94%
inhibition of growth at 0.2 ppm (Diaporthe citri; applied alone, 0.2 ppm): 97%
inhibition of growth at 1 ppm (Diaporthe citri; applied alone, 1.0 ppm): 98%
Efficacy (Parastagonospora nodorum; 0.008 ppm): 38%
Efficacy (Parastagonospora nodorum; 0.04 ppm): 63%
Efficacy (Parastagonospora nodorum; 0.2 ppm): 78%
Efficacy (Parastagonospora nodorum; 1.0 ppm): 79%
inhibition of growth at 0.008 ppm (Fusarium culmorum; 0.008 ppm): 0%
inhibition of growth at 0.04 ppm (Fusarium culmorum): 0%
inhibition of growth at 1 ppm (Fusarium culmorum): 11%
inhibition of growth at 0.008 ppm (Cordana musae; single substance, 0.008 ppm, read-out: Efficacy): 29%
inhibition of growth at 0.2 ppm (Cordana musae; single substance, 0.2 ppm, read-out: Efficacy): 66%
